These results are taken from publication PMC11719397, “Monophthalates of betulinic acid and related pentacyclic triterpenes inhibit efficiently the SOS-mediated nucleotide exchange and impact PI3K/AKT signaling in oncogenic K-RAS4B proteins” (RSC Advances, 2025).

One data set has as its target K-RAS4B wild-type (Homo sapiens, UniProt P01116). The data set can be described thus: Nucleotide exchange assay (SOS1-mediated GDP/GTP exchange, GDP-Glo), K-RAS4B wild-type. The data set is classed as biochemical. Conditions: K-RAS4B GDP/GTP exchange; eight data points, at least three determinations; (*) single determination.
The next data set deals with K-RAS4B^G12D (Homo sapiens, UniProt P01116, G12D). The data set can be described thus: biochemical. As to conditions: for IC50: K-RAS4B GDP/GTP exchange, eight data points, at least three determinations.
For another data set, the target named is K-RAS4B G12V (Homo sapiens, UniProt P01116, G12V). The data set can be described thus: Nucleotide exchange assay (SOS1-mediated GDP/GTP exchange, GDP-Glo), K-RAS4B G12V. The class given is biochemical. As to conditions: eight data points, at least three determinations, (*) single determination.
Where [1] appears, read: K-RAS4B form mostly not given, inactive = IC50 > 100 μM (Fig. 3 legend).

Converted amounts (≈) assume the structure as drawn. Read-outs that look alike come from different tables or passages of the source.

As a reminder, the IC50 is the concentration at which inhibition is half-maximal. A low value points to greater potency. One may read the solubility as the concentration that dissolves in the medium under given conditions. As to `CC(C=O)[C@@H]1CC[C@]2(C(=O)O)CC[C@]3(C)[C@H](CC[C@@H]4[C@@]5(C)CC[C@H](OC(=O)c6ccccc6C(=O)O)C(C)(C)[C@@H]5CC[C@]43C)[C@@H]12` (some centres unmarked) [Compound 14], the IC50 at K-RAS4B wild-type is 37.3 ± 19.1 µM; at K-RAS4B^G12D it was 48.5 ± 12.7 µM; against K-RAS4B G12V, 51.1 ± 6.2 µM. The same compound came in with a solubility in the data set “Solubility” of 447 µM (≈ 278 µg/mL). Also, the “solubility (in words)” value in “Solubility” is given as “well soluble”.

In the case of `CC1(C)CC[C@]2(C(=O)O)CC[C@]3(C)C(=CC[C@@H]4[C@@]5(C)CC[C@H](OC(=O)c6cc(F)c(F)cc6C(=O)NO)C(C)(C)[C@@H]5CC[C@]43C)[C@@H]2C1` [Compound 42, oleanoyl 4,5-difluoro-2-(hydroxycarbamoyl)benzo-ate], the “inhibition of GDP/GTP exchange (in words)” value at K-RAS4B^G12D (setting [1]) is “completely inactive”.

For `C=C(C)[C@@H]1CC[C@]2(COC(=O)CCC(=O)O)CC[C@]3(C)[C@H](CC[C@@H]4[C@@]5(C)CC[C@H](O)C(C)(C)[C@@H]5CC[C@]43C)[C@@H]12` [Compound 31], the IC50 against K-RAS4B wild-type is 25.6 ± 4.3 µM; on K-RAS4B^G12D it was 10.4 ± 0.8 µM; against K-RAS4B G12V, 12.7 ± 5.5 µM.

The compound `C#Cc1c(F)ccc2cc(O)cc(-c3ncc4c(N5CC6CCC(C5)N6)nc(OC[C@@]56CCCN5C[C@H](F)C6)nc4c3F)c12` [Compound 53, MRTX1133, reference compound] returned a solubility in the data set “Solubility” of 322 µM (≈ 193 µg/mL).

Turning to `CC1(C)CC[C@]2(C(=O)O)CC[C@]3(C)C(=CC[C@@H]4[C@@]5(C)CC[C@H](OC(=O)c6ccsc6C(=O)O)C(C)(C)[C@@H]5CC[C@]43C)[C@@H]2C1` [Compound 46], the IC50 against K-RAS4B wild-type was found to be 4.15 ± 1.32 µM; against K-RAS4B^G12D it was 3.67 ± 0.35 µM; on K-RAS4B G12V it was 8.12 ± 1.24 µM. This compound came in with a solubility in the data set “Solubility” of 421 µM (≈ 257 µg/mL).

As to `CC1(C)CCC23CCC4(C)C5(C)CCC6C(C)(C)C(OC(=O)c7cc(F)c(F)cc7C(=O)O)CCC6(C)C5CC(O)C4(OC2=O)C3C1` (centres unmarked) [Compound 51], the IC50 worked out at 7.18 ± 0.68 µM on K-RAS4B wild-type, 26.5 ± 5.9 µM on K-RAS4B^G12D and 8.57 ± 1.09 µM at K-RAS4B G12V. The same compound registered a solubility in “Solubility” of 99 µM (≈ 65 µg/mL).

In the case of `CC1(C)CC[C@]2(C(=O)NCCN)CC[C@]3(C)C(=CC[C@@H]4[C@@]5(C)CC[C@H](O)C(C)(C)[C@@H]5CC[C@]43C)[C@@H]2C1` [Compound 40], the “inhibition of GDP/GTP exchange (in words)” value against K-RAS4B^G12D (setting [1]) was “inactive”.

On to `C=C(C)[C@@H]1CC[C@]2(C(=O)NCCN)CC[C@]3(C)[C@H](CC[C@@H]4[C@@]5(C)CC[C@H](O)C(C)(C)[C@@H]5CC[C@]43C)[C@@H]12` [Compound 17], for which the “inhibition of GDP/GTP exchange (in words)” value against K-RAS4B^G12D (setting [1]) was “inactive”.

Regarding `C=C(C)[C@@H]1CC[C@]2(C(=O)O)CC[C@]3(C)[C@H](CC[C@@H]4[C@@]5(C)CC[C@H](OC(C)=O)C(C)(C)[C@@H]5CC[C@]43C)[C@@H]12` [Compound 8], the “inhibition of GDP/GTP exchange (in words)” value at K-RAS4B^G12D (setting [1]) was “inactive”.

The compound `C[C@H]1[C@H](C)CC[C@]2(C(=O)O)CC[C@]3(C)C(=CC[C@@H]4[C@@]5(C)CC[C@H](O)C(C)(C)[C@@H]5CC[C@]43C)[C@H]12` [Compound 4, Ursolic acid] registered an IC50 at K-RAS4B^G12D of more than 300 µM.

Consider `COC(=O)c1ccccc1C(=O)O[C@H]1CC[C@]2(C)[C@H]3CC=C4[C@@H]5CC(C)(C)CC[C@]5(C(=O)O)CC[C@@]4(C)[C@]3(C)CC[C@H]2C1(C)C` [Compound 48], for which, on K-RAS4B^G12D (setting [1]), the “inhibition of GDP/GTP exchange (in words)” value was “completely inactive”.

On to `CC1(C)CC[C@]2(C(=O)O)CC[C@]3(C)C(=CC[C@@H]4[C@@]5(C)CC[C@H](OC(=O)c6c(F)ccc(F)c6C(=O)O)C(C)(C)[C@@H]5CC[C@]43C)[C@@H]2C1` [Compound 44], for which the IC50 against K-RAS4B wild-type worked out at 1.33 ± 0.24 µM; on K-RAS4B^G12D, 2.88 ± 0.89 µM; against K-RAS4B G12V it was 2.51 ± 0.24 µM. In addition, in “Solubility”, the concentration in solution (solubility) came to 424 µM (≈ 272 µg/mL).

As to `CC1(C)CC[C@]2(C(=O)O)CC[C@]3(C)C(=CC[C@@H]4[C@@]5(C)CC[C@H](OC(=O)c6sccc6C(=O)O)C(C)(C)[C@@H]5CC[C@]43C)[C@@H]2C1` [Compound 45], the IC50 amounted to 1.52 ± 0.5 µM against K-RAS4B wild-type, 3.06 ± 0.79 µM against K-RAS4B^G12D and 5.62 ± 0.93 µM at K-RAS4B G12V. For the same compound, the concentration in solution in “Solubility” (solubility) was 390 µM (≈ 238 µg/mL).

Consider `C=C(C)[C@@H]1CC[C@]2(C(=O)NCC(=O)OCC)CC[C@]3(C)[C@H](CC[C@@H]4[C@@]5(C)CC[C@H](O)C(C)(C)[C@@H]5CC[C@]43C)[C@@H]12` [Compound 21], for which the “inhibition of GDP/GTP exchange (in words)” value against K-RAS4B^G12D is “inactive”.

For `C=C(C)[C@@H]1CC[C@]2(C(=O)On3nnc4cccnc43)CC[C@]3(C)[C@H](CC[C@@H]4[C@@]5(C)CC[C@H](O)C(C)(C)[C@@H]5CC[C@]43C)[C@@H]12` [Compound 13], the “inhibition of GDP/GTP exchange (in words)” value against K-RAS4B^G12D (setting [1]) is “inactive”.

The compound `C=C(C)[C@@H]1CC[C@]2(C(=O)O)CC[C@]3(C)[C@H](CC[C@@H]4[C@@]5(C)CC[C@H](O)C(C)(C)[C@@H]5CC[C@]43C)[C@@H]12` [Compound 2, betulinic acid] came in with an IC50 against K-RAS4B^G12D of more than 300 µM.

Regarding `C=C(C)[C@@H]1CC[C@]2(C(=O)OC)CC[C@]3(C)[C@H](CC[C@@H]4[C@@]5(C)CC[C@H](O)C(C)(C)[C@@H]5CC[C@]43C)[C@@H]12` [Compound 10], the “inhibition of GDP/GTP exchange (in words)” value against K-RAS4B^G12D (setting [1]) was “inactive”.

Regarding `C=C(C)[C@@H]1CC[C@]2(C(=O)O)CC[C@]3(C)[C@H](CC[C@@H]4[C@@]5(C)CC[C@H](OC(=O)c6ccccc6)C(C)(C)[C@@H]5CC[C@]43C)[C@@H]12` [Compound 9], on K-RAS4B^G12D (setting [1]), the “inhibition of GDP/GTP exchange (in words)” value is “inactive”.

Turning to `C=C(C)[C@@H]1CC[C@]2(C(=O)O)CC[C@]3(C)[C@H](CC[C@@H]4[C@@]5(C)CCC(=O)C(C)(C)[C@@H]5CC[C@]43C)[C@@H]12` [Compound 20, betulonic acid], the “inhibition of GDP/GTP exchange (in words)” value against K-RAS4B^G12D (setting [1]) is “inactive”.

Take `Cn1cnc(Cn2ccc3ccc(CNCc4[nH]c5ccccc5c4C4NC(=O)c5ccc(O)cc54)cc32)c1` (centres unmarked) [Compound 54, BI2852, reference compound]: the IC50 at K-RAS4B wild-type came to 13.4 ± 2.1 µM; on K-RAS4B^G12D, 13.7 ± 5.1 µM; against K-RAS4B G12V it was 10.9 ± 0.6 µM. Further, the solubility in the data set “Solubility” worked out at 114 µM (≈ 58.9 µg/mL).

`COC(=O)[C@]12CC[C@@H](C(C)C(=O)O)[C@@H]1[C@H]1CC[C@@H]3[C@@]4(C)CC[C@H](OC(C)=O)C(C)(C)[C@@H]4CC[C@@]3(C)[C@]1(C)CC2` (some centres unmarked) [Compound 27] gave an IC50 against K-RAS4B^G12D of 13.8 ± 4.2 µM.

As to `C=C(C)[C@@H]1CC[C@]2(CN)CC[C@]3(C)[C@H](CC[C@@H]4[C@@]5(C)CC[C@H](O)C(C)(C)[C@@H]5CC[C@]43C)[C@@H]12` [Compound 35], the “inhibition of GDP/GTP exchange (in words)” value on K-RAS4B^G12D is “inactive”.

`C=C(C)[C@@H]1CC[C@]2(C(=O)NCC(=O)O)CC[C@]3(C)[C@H](CC[C@@H]4[C@@]5(C)CC[C@H](O)C(C)(C)[C@@H]5CC[C@]43C)[C@@H]12` [Compound 12]: the “inhibition of GDP/GTP exchange (in words)” value on K-RAS4B^G12D (setting [1]) is “inactive”.

Take `CC1(C)CC[C@]2(C(=O)Nc3nnn[nH]3)CC[C@]3(C)C(=CC[C@@H]4[C@@]5(C)CC[C@H](O)C(C)(C)[C@@H]5CC[C@]43C)[C@@H]2C1` [Compound 39]: the IC50 against K-RAS4B wild-type was 12.8 ± 2.9 µM; against K-RAS4B^G12D, 27.8 ± 2.6 µM; at K-RAS4B G12V, 9.18 ± 0.99 µM.

Consider `C=C(C)[C@@H]1CC[C@]2(C(=O)O)CC[C@]3(C)[C@H](CC[C@@H]4[C@@]5(C)CC[C@H](OC(=O)c6cc7ccccc7cc6C(=O)O)C(C)(C)[C@@H]5CC[C@]43C)[C@@H]12` [Compound 22], for which the “inhibition of GDP/GTP exchange (in words)” value against K-RAS4B^G12D is “loss of GDP/GTP exchange inhibition”.

Take `COc1cc(C(=O)O)c(C(=O)O[C@H]2CC[C@]3(C)[C@H]4CC=C5[C@@H]6[C@@H](C)[C@H](C)CC[C@]6(C(=O)O)CC[C@@]5(C)[C@]4(C)CC[C@H]3C2(C)C)cc1OC` [Compound 38]: the IC50 against K-RAS4B wild-type was determined as 53.6 ± 7.3 µM; on K-RAS4B^G12D, 55.6 ± 6.5 µM. Besides, the solubility in “Solubility” was found to be 383 µM (≈ 255 µg/mL).

For the compound `CC1(C)CC[C@]2(C(=O)NO)CC[C@]3(C)C(=CC[C@@H]4[C@@]5(C)CC[C@H](OC(=O)c6cc(F)c(F)cc6C(=O)O)C(C)(C)[C@@H]5CC[C@]43C)[C@@H]2C1` [Compound 41], the IC50 against K-RAS4B wild-type amounted to 4.68 µM; against K-RAS4B^G12D it was 7.61 ± 0.7 µM; against K-RAS4B G12V, 5.47 µM.

Consider `CC1(C)CCC23CCC4(C)C5(C)CCC6C(C)(C)C(OC(=O)c7c(F)ccc(F)c7C(=O)O)CCC6(C)C5CC(O)C4(OC2=O)C3C1` (centres unmarked) [Compound 52], for which the IC50 against K-RAS4B wild-type was 10.6 ± 2.9 µM; at K-RAS4B^G12D it was 27.1 ± 4.2 µM; at K-RAS4B G12V it was 8.7 ± 0.59 µM. This compound showed a solubility in the data set “Solubility” of 320 µM (≈ 210 µg/mL).

`CC1(C)CC[C@]2(C(=O)O)CC[C@]3(C)C(=CC[C@@H]4[C@@]5(C)CC[C@H](OC(=O)c6cc(F)c(F)cc6C(=O)O)C(C)(C)[C@@H]5CC[C@]43C)[C@@H]2C1` [Compound 43]: the IC50 came out at 1.5 ± 0.08 µM against K-RAS4B wild-type, 2.22 ± 0.29 µM on K-RAS4B^G12D and 2.71 ± 0.39 µM against K-RAS4B G12V. Besides, the concentration in solution in the data set “Solubility” (solubility) was 394 µM (≈ 252 µg/mL).
